According to patent US20070043091A1, “Kv1.5-BLOCKER FOR THE SELECTIVE INCREASE OF ATRIAL CONTRACTILITY AND TREATMENT OF CARDIAC [sequence]” (SANOFI-AVENTIS DEUTSCHLAND GMBH, priority 2004, published 2007):
“Also recorded” adds a separate entry of the source.

Key:
pig left atrium [1] = assay: Effect of Kv1.5 blockers on atrial contractility in anesthetized pigs, sinus rhythm; format: in vivo, German Landrace pigs; conditions: 1 mg/kg i.v.
Method: (§1) A) Test of the Effect of Kv1.5 Blockers on Atrial Contractility in Anesthetized Pigs
(§2) Material and methods: German Landrace pigs were premedicated by an intramuscular injection of 2.5-3.5 mg/kg each of xylazine, tiletamine and zolazepam in a mixing syringe. The anesthesia was induced with pentobarbital (approx. 30 mg/kg i.v.) and maintained by continuous infusion of pentobarbital (12-17 mg/kg/h).
(§3) After induction of anesthesia and after a tracheotomy, the animals were intubated and ventilated with a mixture of ambient air with 40% oxygen.
(§4) The ventilation rate and volume were governed by regularly measured blood gas and pH levels. The body temperature was continuously recorded and controlled by a heated underlay and/or red light lamp and/or warming of the breathed air to keep it constant (about 37-38° C.).
The following blood vessels of the pigs were exposed and cannulated:
External jugular vein (anesthesia infusion), carotid artery (introduction of a tip manometer catheter in the left ventricle to record the pressure there), lateral saphenous vein (dosage of test substance), epigastrica cranialis superficialis vein (fluid infusion), femoral artery (peripheral blood pressure recording) and femoral vein (introduction of MAP catheter right atrium).
The parameters responsible for the contractility are determined using two ultrasonic sensors on the left atrium (P/N JP 5-2, Triton Technology®) [references 1 and 2]. These two piezoelectric sensors are implanted in the cranio-caudal direction through punctuate incisions at the extreme edge of the atrium. The incisions were each closed with a U stitch (2-0 Vicryl®).
The two ultrasonic sensors were than connected to the evaluation unit. In addition, a pressure-measuring catheter was implanted at the ventral edge of the atrium in order to record the left atrial pressure.
The left atrial systolic shortening (LASS) was determined from the atrial diameter at the start of the active atrial pressure curve and the minimum diameter. Since the atrial contractility depends on the initial extension, the left atrial systolic shortening was divided by the value at the start of active atrial contraction (LASS index). The maximum steepness of the contraction curve was determined by importing the raw data points to Microsoft Excel for calculation of the maximum steepness of the curve. In order to exclude breathing-related variations, at least 10 cardiac cycles were analyzed. This parameter, which likewise indicates an improved contractility, is referred to as LASS steepness.
Recording of the initial values was followed by infusion for 10 minutes of the vehicle which was used later and is composed of 0.5 ml of DMSO, 2.5 ml of PEG and 2.0 ml of glucose G20. […]

[2] = system: pigs with pericardial air instillation; assay: Left ventricular ejection (cardiac output) in a model of diastolic dysfunction, pericardial air instillation; format: in vivo; conditions: for Cardiac output, % of the initial value before example 1 / Cardiac output, % of the initial value before instillation / Cardiac output, average: 3 mg/kg i.v. over 30 min
Method: B) Improved Left Ventricular Ejection after Kv1.5 Blockers in a Model of Diastolic Dysfunction Methods: Pigs were anesthetized as described in A) and thoracotomized. A flow sensor was attached over the aorta to measure the cardiac output. In a stable hemodynamic situation, air (approx. 30 ml) was instilled into the pericardial using a cannula. The intention of pericardial air instillation is to impede ventricular filling, which eventually leads to a decreased cardiac output (diastolic heart failure). […] The pericardial air instillation leads to a distinct reduction in the cardiac output (table 3).

pig left atrium [3] = assay: Effect on atrial contractility in anesthetized pigs after one hour of induced atrial fibrillation; format: in vivo, German Landrace pigs
Method: as §1, §2, §3
In a further series of experiments, the test substance was administered only after one hour of atrial fibrillation induced by persistent high-frequency stimulation (1200 beats/min) of the right atrium. In this case, the parameters of atrial contractility were recorded before/after the period of fibrillation and after administration of the test substance and compared with those after the vehicle control.
as §4
The following blood vessels of the pigs were exposed and cannulated: […]
The parameters responsible for the contractility are determined using two ultrasonic sensors on the left atrium (P/N JP 5-2, Triton Technology®) [references 1 and 2]. […]
The left atrial systolic shortening (LASS) was determined from the atrial diameter at the start of the active atrial pressure curve and the minimum diameter. […] The maximum steepness of the contraction curve was determined by importing the raw data points to Microsoft Excel for calculation of the maximum steepness of the curve. In order to exclude breathing-related variations, at least 10 cardiac cycles were analyzed. […]

[4] = time not given (start of infusion)

CCCCS(=O)(=O)Nc1ccccc1C(=O)N[C@H](CC)c1ccc(OC)nc1 (single isomer, unassigned) [Example 5]
LASS, increase in % (pig left atrium [1]; after vs before administration): 68% | LASS, absolute values, after administration (pig left atrium [1]; n = 8): 8.25 ± 1.43

COc1ccc(CC(=O)NCc2ccccc2-c2ccccc2C(=O)NCCc2cccnc2)cc1 [Example 1, N-(2-pyridin-3-ylethyl)-2′-{[2-(4-methoxyphenyl)acetylamino]-methyl}biphenyl-2-carboxamide]
Cardiac output, % of the initial value before example 1 ([2]; 2′): 102% | Cardiac output, % of the initial value before instillation ([2]; 2′): 72% | Cardiac output, average ([2]; 2′): 1.55 L/min | Cardiac output, % of the initial value before example 1 ([2]; 5′): 104% | Cardiac output, % of the initial value before instillation ([2]; 5′): 73% | Cardiac output, average ([2]; 5′): 1.58 L/min | Cardiac output, % of the initial value before example 1 ([2]; 10′): 111% | Cardiac output, % of the initial value before instillation ([2]; 10′): 78% | Cardiac output, average ([2]; 10′): 1.69 L/min | Cardiac output, % of the initial value before example 1 ([2]; 15′): 117% | Cardiac output, % of the initial value before instillation ([2]; 15′): 82% | Cardiac output, average ([2]; 15′): 1.78 L/min | Cardiac output, % of the initial value before example 1 ([2]; 20′): 121% | Cardiac output, % of the initial value before instillation ([2]; 20′): 84% | Cardiac output, average ([2]; 20′): 1.84 L/min | Cardiac output, % of the initial value before example 1 ([2]; 25′): 123% | Cardiac output, % of the initial value before instillation ([2]; 25′): 86% | Cardiac output, average ([2]; 25′): 1.88 L/min | Cardiac output, % of the initial value before example 1 ([2]; 30′): 125% | Cardiac output, % of the initial value before instillation ([2]; 30′): 87% | Cardiac output, average ([2]; 30′): 1.90 L/min | Cardiac output, % of the initial value before example 1 ([2]; 35′): 120% | Cardiac output, % of the initial value before instillation ([2]; 35′): 85% | Cardiac output, average ([2]; 35′): 1.83 L/min | Cardiac output, % of the initial value before example 1 ([2]; 40′): 117% | Cardiac output, % of the initial value before instillation ([2]; 40′): 83% | Cardiac output, average ([2]; 40′): 1.79 L/min | Cardiac output, % of the initial value before example 1 ([2]; 50′): 116% | Cardiac output, % of the initial value before instillation ([2]; 50′): 82% | Cardiac output, average ([2]; 50′): 1.76 L/min | Cardiac output, % of the initial value before example 1 ([2]; 60′): 111% | Cardiac output, % of the initial value before instillation ([2]; 60′): 79% | Cardiac output, average ([2]; 60′): 1.69 L/min | Cardiac output, % of the initial value before example 1 ([2]; 70′): 108% | Cardiac output, % of the initial value before instillation ([2]; 70′): 78% | Cardiac output, average ([2]; 70′): 1.65 L/min | Cardiac output, % of the initial value before example 1 [2, 4]: 100% | Cardiac output, % of the initial value before instillation [2, 4]: 71% | Cardiac output, average [2, 4]: 1.53 L/min | maximum increase in the reduced cardiac output ([2]; 3 mg/kg infused in 30 min, n=11): 25% | LACC steepness, absolute values (pig left atrium [3]; 1 mg/kg i.v., after 1 hour atrial fibrillation): -0.197 cm/s | LACC steepness, in % of the initial value (pig left atrium [3]; 1 mg/kg i.v., after 1 hour atrial fibrillation, initial value = before AF): 112.6% | atrial function / contractility, in words (pig left atrium [3]; after one hour of atrial fibrillation): statistically significant improvement; also recorded: above the base line level | LACC steepness, absolute value, after administration (pig left atrium [1]): -0.152 ± 0.02 cm/s | LACC steepness, increase in % (pig left atrium [1]; after vs before administration): +38.2%
